{
  "source": "patent US20250215006A1",
  "about": "“TRICYCLIC COMPOUNDS AS INHIBITORS OF WRN” (Incyte Corporation, priority 2023, published 2025)",
  "key": {"WRN [1]": {"target": "T1, WRN (Homo sapiens, UniProt Q14191)", "T1 construct": "A His-tagged construct of WRN (AA S2-S1235) was produced and used for the ATPase assay; His; made in house; host or cells: Sf9 insect cells (baculovirus, pFastBac1)", "T1 sequence (Q14191 2-1235)": "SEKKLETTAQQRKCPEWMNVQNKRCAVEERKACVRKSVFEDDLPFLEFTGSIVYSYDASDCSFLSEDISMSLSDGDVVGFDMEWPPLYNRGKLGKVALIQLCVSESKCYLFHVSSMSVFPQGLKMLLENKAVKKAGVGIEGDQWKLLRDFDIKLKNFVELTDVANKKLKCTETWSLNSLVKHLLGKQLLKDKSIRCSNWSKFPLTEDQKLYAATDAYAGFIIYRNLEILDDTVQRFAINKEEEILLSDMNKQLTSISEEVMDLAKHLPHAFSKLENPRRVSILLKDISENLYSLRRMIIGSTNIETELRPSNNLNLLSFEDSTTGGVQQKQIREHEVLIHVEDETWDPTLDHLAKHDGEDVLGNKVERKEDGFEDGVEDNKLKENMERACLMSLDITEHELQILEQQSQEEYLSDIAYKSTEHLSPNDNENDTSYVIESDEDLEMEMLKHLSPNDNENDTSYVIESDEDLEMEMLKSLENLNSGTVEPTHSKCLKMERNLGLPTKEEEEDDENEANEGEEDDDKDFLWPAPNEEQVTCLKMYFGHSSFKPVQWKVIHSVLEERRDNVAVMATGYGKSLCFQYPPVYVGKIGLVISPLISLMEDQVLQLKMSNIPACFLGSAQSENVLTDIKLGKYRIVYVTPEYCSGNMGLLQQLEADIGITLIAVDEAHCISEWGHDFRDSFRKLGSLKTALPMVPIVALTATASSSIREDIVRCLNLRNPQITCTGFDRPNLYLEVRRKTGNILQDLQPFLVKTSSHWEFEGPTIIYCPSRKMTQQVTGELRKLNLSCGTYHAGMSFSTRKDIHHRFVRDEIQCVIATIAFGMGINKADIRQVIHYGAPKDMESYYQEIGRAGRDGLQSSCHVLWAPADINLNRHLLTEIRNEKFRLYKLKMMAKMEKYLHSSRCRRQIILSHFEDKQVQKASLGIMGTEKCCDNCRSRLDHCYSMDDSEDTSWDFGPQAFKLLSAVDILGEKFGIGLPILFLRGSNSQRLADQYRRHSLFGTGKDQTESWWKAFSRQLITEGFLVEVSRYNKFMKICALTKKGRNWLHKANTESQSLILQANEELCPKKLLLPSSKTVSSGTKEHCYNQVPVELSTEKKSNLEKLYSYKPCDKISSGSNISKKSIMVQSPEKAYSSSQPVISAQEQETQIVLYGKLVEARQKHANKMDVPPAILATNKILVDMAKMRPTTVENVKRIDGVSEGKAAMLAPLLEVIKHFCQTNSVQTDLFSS", "assay": "WRN ATPase activity assay (ADP-Glo)", "type": "biochemical", "settings": "1-hr pre-incubation with enzyme; 100 μM ATP, 25 nM forked dsDNA, 1 nM WRN; geometric mean of at least 2 replicates", "protocol": "Compounds of the Examples were tested for WRN ATPase activity. WRN ATPase activity catalyzes ATP hydrolysis to produce ADP and phosphate. DNA encoding the target protein, 6×HIS-TEV-WRN-517-945, was produced, cloned and transfected as detailed in Example D. The amount of ADP produced was measured using ADP-Glo™ Kinase Assay kit from Promega Corporation in a Greiner white regular volume 384 wells assay plate (Greiner #781075). Data was normalized to a standard curve generated using various ADP concentrations and the corresponding luminescent signal intensities at each concentration. The assay conditions were optimized for enzyme concentration (WRN), substrate concentrations (ATP & dsDNA), and the linearity of the ATPase reaction, in the following assay buffer: 50 mM Tris-HCl, pH-7.5, 2 mM MgCl2, 50 mM NaCl, 1 mM EGTA, 0.01% P-20, 0.05% BSA, and 2 mM DTT prepared with nuclease free water.\nA serial dilution (1:3 scheme) of the compounds were prepared in neat DMSO, with 100 nL of the compounds dispensed in the 384 wells assay plate. An 1-hr pre-incubation of the compounds with enzyme was included. A His-tagged construct of WRN (AA S2-S1235) was produced and used for the ATPase assay. Maximum inhibition control wells were set up with the addition of only assay buffer, and no inhibition control wells were set up with neat DMSO without test compounds. The reaction was initiated by addition of 5 μL substrate mix (200 μM ultrapure ATP, and 50 nM dsDNA prepared in assay buffer) and incubated at 25° C. for 35 min. A forked dsDNA oligomer substrate was prepared by annealing equal amounts of oligo GPat-1 ([BHQ2][…]) and oligo GPat-2 ([…][TAM]) and was used as dsDNA substrate for WRN ATPase assay. A typical ATPase reaction consists of 25 nM forked dsDNA, 100 μM ATP, and 1 nM WRN prepared in assay buffer. The WRN ATPase reaction was stopped by the addition of 5 μL of ADP-Glo Reagent from ADP-Glo™ Kinase Assay kit and incubated for 40 min to deplete the unreacted ATP. Afterwards, 5 μL of Kinase Detection Reagent from the ADP-Glo™ Kinase Assay kit was added and incubated for 1 hr for the development of luminescence signal.\nLuminesce signals were measured on BMG PHERAstar FSX using luminescence protocol. Data analysis was carried out using Genedata software following % of control normalization. Fitting parameters include dose response IC50, Hill slope (n), maximum inhibition (S∞), and minimum inhibition (S0). The reported IC50 values for compounds in this invention are the geometric means of at least 2 independent replicates."}, "WRN [2]": {"target": "T1, WRN", "assay": "WRN Helicase activity assay (fluorescence DNA unwinding)", "type": "biochemical", "settings": "1-hr pre-incubation with enzyme; 100 μM ATP, 25 nM forked dsDNA, 1 nM WRN; geometric mean of at least 2 replicates", "protocol": "Compounds of the examples were tested for WRN helicase activity. DNA encoding the target protein, 6×HIS-TEV-WRN-517-945, was produced, cloned and transfected as detailed in Example D. To determine the inhibitory properties of the compounds, a 384 wells plate-based Helicase assay was set up to measure the extent of DNA unwinding (Helicase) activity of WRN. The WRN Helicase assay was designed to measure increase in fluorescence signal using a fluorescence based, donor-quencher paired forked dsDNA oligomer substrate (custom synthesis from Sigma-Aldrich) prepared by annealing equal amounts of oligo GPat-1 ([BHQ2][…]) and oligo GPat-2 ([…][TAM]). Continuous measurement of fluorescent signal was used to optimize the buffer conditions, concentration of enzyme (WRN), concentration of substrates (ATP & dsDNA), and the linearity of the Helicase reaction. All solutions were prepared in the following assay buffer: 50 mM Tris-HCl, pH-7.5, 2 mM MgCl2, 50 mM NaCl, 1 mM EGTA, 0.01% P-20, 0.05% BSA, and 2 mM DTT prepared with nuclease free water.\nA serial dilution (1:3 scheme) of the compounds was prepared in neat DMSO and 100 nL of the compounds was dispensed in the Greiner black low volume (Greiner #784076) 384 wells assay plate. An 1-hr pre-incubation of the compounds with enzyme was included. A His-tagged construct of WRN (AA S2-S1235) was produced and used for the ATPase assay. Maximum inhibition control wells were set up with the addition of only assay buffer, and no inhibition control wells were set up with neat DMSO without test compounds. The reaction was initiated by addition of 5 μL substrate mix (200 μM ultrapure ATP, and 50 nM dsDNA prepared in assay buffer) and incubated at 25° C. for 35 min. A typical Helicase reaction consists of 25 nM forked dsDNA, 100 μM ATP, and 1 nM WRN prepared in assay buffer. The WRN Helicase reaction was quenched by the addition of 5 μL ‘STOP’ solution containing 100 mM EDTA (final EDTA concentration 33.33 mM) prepared in assay buffer. The plates were read on BMG PHERAstar FSX using 540/590 module to measure an increase of fluorescence. Data analysis was carried out using the Genedata software following % of control normalization. Fitting parameters include dose response IC50, Hill slope (n), maximum inhibition (S∞), and minimum inhibition (S0). The reported IC50 values for compounds in this invention are the geometric means of at least 2 independent replicates."}},
  "data": [
    {"smiles": "C=CC(=O)Nc1ccccc1-c1c(CC)nc2n(CC(=O)Nc3ccc(C(F)(F)F)cc3)c3c(n2c1=O)CCCC3", "note": "[Example 22, N-(2-(2-ethyl-4-oxo-10-(2-oxo-2-((4-(trifluoromethyl)phenyl)amino)ethyl)-4,6,7,8,9,10-hexahydrobenzo[4,5]imidazo[1,2-a]pyrimidin-3-yl)phenyl)acrylamide]", "values": [
      {"measurement": "IC50", "setting": "WRN [1]", "value": "< 100", "unit": "nM"},
      {"measurement": "IC50", "setting": "WRN [2]", "value": "< 100", "unit": "nM"}
    ]},
    {"smiles": "C=CC(=O)Nc1ccccc1-c1c(CC)nc2n(CC(=O)Nc3ccccc3)c3ccccc3n2c1=O", "note": "[Example 2, N-(2-(2-Ethyl-4-oxo-10-(2-oxo-2-(phenylamino)ethyl)-4,10-dihydrobenzo[4,5]imidazo[1,2-a]pyrimidin-3-yl)phenyl)acrylamide]", "values": [
      {"measurement": "IC50", "setting": "WRN [1]", "value": "< 100", "unit": "nM"},
      {"measurement": "IC50", "setting": "WRN [2]", "value": "< 100", "unit": "nM"}
    ]},
    {"smiles": "C=CC(=O)Nc1ccccc1-c1c(CC)nc2n(CC(=O)Nc3ccc(F)c(F)c3)c3ccccc3n2c1=O", "note": "[Example 8, N-(2-(10-(2-((3,4-Difluorophenyl)amino)-2-oxoethyl)-2-ethyl-4-oxo-4,10-dihydrobenzo[4,5]imidazo[1,2-a]pyrimidin-3-yl)phenyl)acrylamide]", "values": [
      {"measurement": "IC50", "setting": "WRN [1]", "value": "< 100", "unit": "nM"},
      {"measurement": "IC50", "setting": "WRN [2]", "value": "< 100", "unit": "nM"}
    ]},
    {"smiles": "C=CC(=O)Nc1ccccc1-c1c(CC)nc2n(CC(=O)Nc3ccc(CC)cc3)c3ccccc3n2c1=O", "note": "[Example 5, N-(2-(2-Ethyl-10-(2-((4-ethylphenyl)amino)-2-oxoethyl)-4-oxo-4,10-dihydrobenzo[4,5]imidazo[1,2-a]pyrimidin-3-yl)phenyl)acrylamide]", "values": [
      {"measurement": "IC50", "setting": "WRN [1]", "value": "< 100", "unit": "nM"},
      {"measurement": "IC50", "setting": "WRN [2]", "value": "< 100", "unit": "nM"}
    ]},
    {"smiles": "C=CC(=O)Nc1nn(C)cc1-c1c(CC)nc2n(CC(=O)Nc3ccc(C(F)(F)F)cc3)c3ccccc3n2c1=O", "note": "[Example 16, N-(4-(2-Ethyl-4-oxo-10-(2-oxo-2-((4-(trifluoromethyl)phenyl)amino)ethyl)-4,10-dihydrobenzo[4,5]imidazo[1,2-a]pyrimidin-3-yl)-1-methyl-1H-pyrazol-3-yl)acrylamide]", "values": [
      {"measurement": "IC50", "setting": "WRN [1]", "value": "1000 to 5000", "unit": "nM"},
      {"measurement": "IC50", "setting": "WRN [2]", "value": "5000 to 20000", "unit": "nM"}
    ]},
    {"smiles": "C=CC(=O)Nc1ccccc1-c1c(CC)cc2n(CC(=O)Nc3ccc(C(F)(F)F)cc3)c3ccccc3n2c1=O", "note": "[Example 26, N-(2-(3-Ethyl-1-oxo-5-(2-oxo-2-((4-(trifluoromethyl)phenyl)amino)ethyl)-1,5-dihydrobenzo[4,5]imidazo[1,2-a]pyridin-2-yl)phenyl)acrylamide]", "values": [
      {"measurement": "IC50", "setting": "WRN [1]", "value": "100 to 500", "unit": "nM"},
      {"measurement": "IC50", "setting": "WRN [2]", "value": "< 100", "unit": "nM"}
    ]},
    {"smiles": "C=CC(=O)Nc1ccccc1-c1c(CC)nc2n(CC(=O)Nc3ccc(F)cc3)c3ccccc3n2c1=O", "note": "[Example 1, N-(2-(2-Ethyl-10-(2-((4-fluorophenyl)amino)-2-oxoethyl)-4-oxo-4,10-dihydrobenzo[4,5]imidazo[1,2-a]pyrimidin-3-yl)phenyl)acrylamide]", "values": [
      {"measurement": "IC50", "setting": "WRN [1]", "value": "< 100", "unit": "nM"},
      {"measurement": "IC50", "setting": "WRN [2]", "value": "< 100", "unit": "nM"}
    ]},
    {"smiles": "C=CC(=O)Nc1ccccc1-c1c(CC)nc2n(CC(=O)Nc3ccc(F)cc3C)c3ccccc3n2c1=O", "note": "[Example 9, N-(2-(2-Ethyl-10-(2-((4-fluoro-2-methylphenyl)amino)-2-oxoethyl)-4-oxo-4,10-dihydrobenzo[4,5]imidazo[1,2-a]pyrimidin-3-yl)phenyl)acrylamide]", "values": [
      {"measurement": "IC50", "setting": "WRN [1]", "value": "< 100", "unit": "nM"},
      {"measurement": "IC50", "setting": "WRN [2]", "value": "< 100", "unit": "nM"}
    ]},
    {"smiles": "C=CC(=O)Nc1ccc(C(=O)N2CC3CC3(O)C2)cc1-c1c(CC)nc2n(CC(=O)Nc3ccc(F)cc3)c3ccccc3n2c1=O", "note": "(centres unmarked) [Example 14, N-(2-(2-Ethyl-10-(2-((4-fluorophenyl)amino)-2-oxoethyl)-4-oxo-4,10-dihydrobenzo[4,5]imidazo[1,2-a]pyrimidin-3-yl)-4-(1-hydroxy-3-azabicyclo[3.1.0]hexane-3-carbonyl)phenyl) acrylamide]", "values": [
      {"measurement": "IC50", "setting": "WRN [1]", "value": "100 to 500", "unit": "nM"},
      {"measurement": "IC50", "setting": "WRN [2]", "value": "100 to 500", "unit": "nM"}
    ]},
    {"smiles": "C=CC(=O)Nc1ccc(C(=O)NCCO)cc1-c1c(CC)nc2n(CC(=O)Nc3ccc(F)cc3)c3ccccc3n2c1=O", "note": "[Example 12, 4-Acrylamido-3-(2-ethyl-10-(2-((4-fluorophenyl)amino)-2-oxoethyl)-4-oxo-4,10-dihydrobenzo[4,5]imidazo[1,2-a]pyrimidin-3-yl)-N-(2-hydroxyethyl) benzamide]", "values": [
      {"measurement": "IC50", "setting": "WRN [1]", "value": "100 to 500", "unit": "nM"},
      {"measurement": "IC50", "setting": "WRN [2]", "value": "100 to 500", "unit": "nM"}
    ]}
  ]
}
